{
  "source": "patent US20210261621A1",
  "about": "“Preparation of Dilipid Polymixins and Use Thereof as Antimicrobial Adjuvants” (priority 2018, published 2021)",
  "key": {"[1]": {"test_system": "E. coli CANWARD-2011 97615", "type": "cell-based, Escherichia coli", "method_in_brief": "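Broth microdilution per CLSI in Mueller-Hinton broth, with 2-fold serial compound dilutions and inoculum of approximately 5×10^5 CFU/mL from overnight cultures. Plates were incubated 18 h at 37° C.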"}, "P. aeruginosa": {"test_system": "P. aeruginosa", "assay": "MIC comparison over the P. aeruginosa strains tested", "type": "cell-based, Pseudomonas aeruginosa", "conditions": "all eleven P. aeruginosa strains tested (Table 2)", "source_text": "Specifically, addition of another lipid component to the amine side-chain of Dab1 reduced polymyxin's activity against Escherichia coli, P. aeruginosa, Stenotrophomonas maltophilia, A. baumannii, Klebsiella pneumoniae and Enterobacter cloacae. However, the reduction of activity against P. aeruginosa was not as drastic relative to other Gram-negative pathogens. […] We believe that this selectivity for P. aeruginosa is due to differences in exopolysaccharides and lipopolysaccharides between Gram-negative bacteria. This finding may imply the possibility of developing antipseudomonal polymyxins for pathogen-specific therapy.\nThe in vitro antibacterial activity of the compounds studied were assessed by broth microdilution susceptibility testing following CLSI guidelines. Bacterial cultures were grown overnight prior to the assay. The overnight grown cultures were diluted in saline to 0.5 McFarland turbidity, followed by 1:50 dilution in Mueller-Hinton broth (MHB) for inoculation to a final concentration of approximately 5×10^5 colony forming units/mL. Testing was performed on 96-well plates where the tested compounds were 2-fold serially diluted in MHB and incubated with equal volumes of bacterial inoculum at 37° C. for 18 h. […] Wells containing MHB with or without bacterial cells were used as positive or negative control, respectively."}, "P. aeruginosa PAO1": {"test_system": "P. aeruginosa PAO1", "set-up": "MICDrug / MICDrug in combo / MIC of adjuvant in combo: unit not given beside the values"}},
  "note": "Where “and” joins values, the source holds several entries; their conditions need not be identical. Equal entries are not always repeated. Where two headings read alike, the source gives them in different places. Positions of bridges follow the written chain, without caps; N, C: chain ends. Non-standard residues stand in square brackets, D forms with d. Residues, ends and D or L forms follow the SMILES beside them. *: point of attachment. Octanoyl = CCCCCCCC(=O)*; Dab = NCC[C@H](N)C(=O)O",
  "data": [
    {"smiles": "CCCCCCCC(=O)NCC[C@H](NC(=O)CCCCCCC)C(=O)N[C@H](C(=O)N[C@@H](CCN)C(=O)N[C@H]1CCNC(=O)[C@H]([C@@H](C)O)NC(=O)[C@H](CCN)NC(=O)[C@H](CCN)NC(=O)[C@H](CC(C)C)NC(=O)[C@@H](Cc2ccccc2)NC(=O)[C@H](CCN)NC1=O)[C@@H](C)O", "note": "[Compound 2, Dioctanoic Acid (Di-C8) Polymyxin] (Octanoyl-[Dab](Octanoyl)T[Dab][Dab][Dab][dF]L[Dab][Dab]T; lactam 4-C)", "values": [
      {"measurement": "% Hemolysis at 512 μg/mL of polymyxin", "setting": "pig erythrocytes", "value": 6.2, "unit": "%"},
      {"measurement": "MIC", "setting": "[1]", "value": 64, "unit": "µg/mL"},
      {"measurement": "fold lower MIC than colistin", "setting": "P. aeruginosa", "value": "4-8 fold"},
      {"measurement": "MIC of adjuvant alone (MIC1, MIC2, MIC3, MIC4, MIC5, MICPMBN)", "setting": "P. aeruginosa PAO1; adjuvant alone, one value per checkerboard, in µg/mL", "value": "8 and 4"},
      {"measurement": "Interpretation", "setting": "P. aeruginosa PAO1; combination with Aztreonam", "value": "Additive (An FIC index of ≤0.5, 0.5<x≤4, or >4 denotes for synergistic, additive or antagonistic interaction, respectively)"},
      {"measurement": "Interpretation", "setting": "P. aeruginosa PAO1; combination with Ceftazidime", "value": "Additive (An FIC index of ≤0.5, 0.5<x≤4, or >4 denotes for synergistic, additive or antagonistic interaction, respectively)"},
      {"measurement": "Interpretation", "setting": "P. aeruginosa PAO1; combination with Chloramphenicol", "value": "Synergy (An FIC index of ≤0.5, 0.5<x≤4, or >4 denotes for synergistic, additive or antagonistic interaction, respectively)"},
      {"measurement": "Interpretation", "setting": "P. aeruginosa PAO1; combination with Ciprofloxacin", "value": "Additive (An FIC index of ≤0.5, 0.5<x≤4, or >4 denotes for synergistic, additive or antagonistic interaction, respectively)"},
      {"measurement": "Interpretation", "setting": "P. aeruginosa PAO1; combination with Clindamycin", "value": "Synergy (An FIC index of ≤0.5, 0.5<x≤4, or >4 denotes for synergistic, additive or antagonistic interaction, respectively)"},
      {"measurement": "Interpretation", "setting": "P. aeruginosa PAO1; combination with Doripenem", "value": "Additive (An FIC index of ≤0.5, 0.5<x≤4, or >4 denotes for synergistic, additive or antagonistic interaction, respectively)"},
      {"measurement": "Interpretation", "setting": "P. aeruginosa PAO1; combination with Doxycycline", "value": "Additive (An FIC index of ≤0.5, 0.5<x≤4, or >4 denotes for synergistic, additive or antagonistic interaction, respectively)"},
      {"measurement": "Interpretation", "setting": "P. aeruginosa PAO1; combination with Fosfomycin", "value": "Additive (An FIC index of ≤0.5, 0.5<x≤4, or >4 denotes for synergistic, additive or antagonistic interaction, respectively)"},
      {"measurement": "Interpretation", "setting": "P. aeruginosa PAO1; combination with Gentamicin", "value": "Additive (An FIC index of ≤0.5, 0.5<x≤4, or >4 denotes for synergistic, additive or antagonistic interaction, respectively)"},
      {"measurement": "Interpretation", "setting": "P. aeruginosa PAO1; combination with Linezolid", "value": "Additive (An FIC index of ≤0.5, 0.5<x≤4, or >4 denotes for synergistic, additive or antagonistic interaction, respectively)"},
      {"measurement": "Interpretation", "setting": "P. aeruginosa PAO1; combination with Meropenem", "value": "Additive (An FIC index of ≤0.5, 0.5<x≤4, or >4 denotes for synergistic, additive or antagonistic interaction, respectively)"},
      {"measurement": "Interpretation", "setting": "P. aeruginosa PAO1; combination with Minocycline", "value": "Synergy (An FIC index of ≤0.5, 0.5<x≤4, or >4 denotes for synergistic, additive or antagonistic interaction, respectively)"},
      {"measurement": "Interpretation", "setting": "P. aeruginosa PAO1; combination with Moxifloxacin", "value": "Additive (An FIC index of ≤0.5, 0.5<x≤4, or >4 denotes for synergistic, additive or antagonistic interaction, respectively)"},
      {"measurement": "Interpretation", "setting": "P. aeruginosa PAO1; combination with Novobiocin", "value": "Synergy (An FIC index of ≤0.5, 0.5<x≤4, or >4 denotes for synergistic, additive or antagonistic interaction, respectively)"},
      {"measurement": "Interpretation", "setting": "P. aeruginosa PAO1; combination with Piperacillin", "value": "Additive (An FIC index of ≤0.5, 0.5<x≤4, or >4 denotes for synergistic, additive or antagonistic interaction, respectively)"},
      {"measurement": "Interpretation", "setting": "P. aeruginosa PAO1; combination with Pleuromutilin", "value": "Additive (An FIC index of ≤0.5, 0.5<x≤4, or >4 denotes for synergistic, additive or antagonistic interaction, respectively)"},
      {"measurement": "Interpretation", "setting": "P. aeruginosa PAO1; combination with Rifampicin", "value": "Additive (An FIC index of ≤0.5, 0.5<x≤4, or >4 denotes for synergistic, additive or antagonistic interaction, respectively)"},
      {"measurement": "Interpretation", "setting": "P. aeruginosa PAO1; combination with Streptomycin", "value": "Additive (An FIC index of ≤0.5, 0.5<x≤4, or >4 denotes for synergistic, additive or antagonistic interaction, respectively)"},
      {"measurement": "Interpretation", "setting": "P. aeruginosa PAO1; combination with Tobramycin", "value": "Additive (An FIC index of ≤0.5, 0.5<x≤4, or >4 denotes for synergistic, additive or antagonistic interaction, respectively)"},
      {"measurement": "Interpretation", "setting": "P. aeruginosa PAO1; combination with Trimethoprim", "value": "Additive (An FIC index of ≤0.5, 0.5<x≤4, or >4 denotes for synergistic, additive or antagonistic interaction, respectively)"},
      {"measurement": "Interpretation", "setting": "P. aeruginosa PAO1; combination with Vancomycin", "value": "Additive (An FIC index of ≤0.5, 0.5<x≤4, or >4 denotes for synergistic, additive or antagonistic interaction, respectively)"},
      {"measurement": "MIC of adjuvant in combo", "setting": "P. aeruginosa PAO1; in combination with Aztreonam", "value": "(4)"},
      {"measurement": "MIC of adjuvant in combo", "setting": "P. aeruginosa PAO1; in combination with Ceftazidime", "value": "(2)"},
      {"measurement": "MIC of adjuvant in combo", "setting": "P. aeruginosa PAO1; in combination with Chloramphenicol", "value": "(2)"},
      {"measurement": "MIC of adjuvant in combo", "setting": "P. aeruginosa PAO1; in combination with Ciprofloxacin", "value": "(4)"},
      {"measurement": "MIC of adjuvant in combo", "setting": "P. aeruginosa PAO1; in combination with Clindamycin", "value": "(2)"},
      {"measurement": "MIC of adjuvant in combo", "setting": "P. aeruginosa PAO1; in combination with Doripenem", "value": "(4)"},
      {"measurement": "MIC of adjuvant in combo", "setting": "P. aeruginosa PAO1; in combination with Doxycycline", "value": "(4)"},
      {"measurement": "MIC of adjuvant in combo", "setting": "P. aeruginosa PAO1; in combination with Fosfomycin", "value": "(4)"},
      {"measurement": "MIC of adjuvant in combo", "setting": "P. aeruginosa PAO1; in combination with Gentamicin", "value": "(0.125)"},
      {"measurement": "MIC of adjuvant in combo", "setting": "P. aeruginosa PAO1; in combination with Linezolid", "value": "(4)"},
      {"measurement": "MIC of adjuvant in combo", "setting": "P. aeruginosa PAO1; in combination with Meropenem", "value": "(4)"},
      {"measurement": "MIC of adjuvant in combo", "setting": "P. aeruginosa PAO1; in combination with Minocycline", "value": "(2)"},
      {"measurement": "MIC of adjuvant in combo", "setting": "P. aeruginosa PAO1; in combination with Moxifloxacin", "value": "(2)"},
      {"measurement": "MIC of adjuvant in combo", "setting": "P. aeruginosa PAO1; in combination with Novobiocin", "value": "(2)"},
      {"measurement": "MIC of adjuvant in combo", "setting": "P. aeruginosa PAO1; in combination with Piperacillin", "value": "(4)"},
      {"measurement": "MIC of adjuvant in combo", "setting": "P. aeruginosa PAO1; in combination with Pleuromutilin", "value": "(2)"},
      {"measurement": "MIC of adjuvant in combo", "setting": "P. aeruginosa PAO1; in combination with Rifampicin", "value": "(1)"},
      {"measurement": "MIC of adjuvant in combo", "setting": "P. aeruginosa PAO1; in combination with Streptomycin", "value": "(4)"},
      {"measurement": "MIC of adjuvant in combo", "setting": "P. aeruginosa PAO1; in combination with Tobramycin", "value": "(0.125)"},
      {"measurement": "MIC of adjuvant in combo", "setting": "P. aeruginosa PAO1; in combination with Trimethoprim", "value": "(4)"},
      {"measurement": "MIC of adjuvant in combo", "setting": "P. aeruginosa PAO1; in combination with Vancomycin", "value": "(4)"}
    ]}
  ]
}
